# Columns and labels:
# eNOS = eNOS induction in the heart after oral administration (Western blotting); format: in vivo, rat; settings: oral 200 mg/kg, 24 hours after administration, FIG. 4(A)
# Description: Monoclonal IgG antibody cross-reactive to HSP70, HSP60 and HSP27 antibodies was purchased from Stressgen Biotechnologies Corporation ([…], Canada). Primary antibodies of nitric oxide synthase (NOS) or in other words inducible NOS (iNOS), endothelial NOS (eNOS) and neuronal NOS (nNOS) were purchased from Transduction Laboratories (Lexington, Ky.). The primary antibody of thioredoxin was kindly provided by Professor Yodoi of Kyoto University.
# An emulsion of 100% by weight of geranylgeranylacetone (GGA) with 5% by weight of gum arabic and 0.008% by weight of tocopherol was given orally to the rats described above. The oral dosages were 50 mg/kg, 100 mg/kg, 200 mg/kg and 400 mg/kg (GGA groups). […] The vehicle was administered orally to the Control Group.
# Next, the hearts were removed from the killed rats and frozen in liquid nitrogen. […]
# The total protein concentration of the myocardium was quantified by the Bradford method (Bradford M M. A rapid and sensitive method for quantitation of microgram quantities of protein utilizing the principle of protein-dye binding. Anal Biochem 1976; 72:248-254). […] The proteins were detected by exposing the ECL cells with Hyperfilm (Amersham Pharmacia, Buckinghamshire, UK). Based on this, the amount of proteins on the immunoblots was quantified using National Institutes of Health (NIH) imaging software. […]
# isolated perfused heart = assay: Isolated perfused heart experiments (Langendorff, no-flow global ischemia/reperfusion), Example 1; format: in vivo, rat; settings: for amount of creatine kinase (CK) released during reperfusion versus Control Group: 30 min reperfusion, FIG. 6
# Experimental: As mentioned above, 24 hours after administration of 200 mg/kg of GGA or the vehicle, rats were heparinized (500 IU/kg, i.p.) and anesthetized with pentobarbital (50 mg/kg, i.p.).
# Each heart was isolated and reperfused using the Langendorff method with Krebs-Henseleit buffer (pH 7.4, [in mM] 118 NaCl, 4.7 KCl, 2.5 CaCl2, 1.2 MgSO4, 1.2 KH2PO4, 25.0 Na2HCO3, 11.0 glucose) equilibrated with a 95% O2, 5% CO2 gas mixture at 36.5° C., 75 mmHg (1.0×10^4 Pa).
# A water-filled latex balloon was inserted through the mitral orifice into the left ventricle, and the left ventricular end diastolic pressure (LVEDP) was adjusted to 0-5 mmHg (0-667 Pa). During the first 10 minutes of constant pressure reperfusion, the perfusion flow rate was determined for each heart, and the hearts were then perfused at a determined perfusion rate using a microtube pump, during which time each heart was covered with water-jacketed glassware and humidity was maintained at 90% or more.
# Normothermic no-flow global ischemia was performed for 20, 40 and 60 minutes, followed by reperfusion for 30 minutes. The coronary effluent from the 30-minute reperfusion period was collected for measurement of released creatine kinase (CK). The ratio of released CK to heart weight was analyzed by unpaired t-test.
# The peak position and negative first derivaties of left ventricular pressure (dP/dt max and dP/dt min) were monitored using a pressure transducer. Left ventricular developed pressure (LVDP) was defined as the difference between left ventricular systolic and diastolic pressure. Coronary perfusion pressure (CPP) was calculated as the hydraulic pressure measured at the level of aortic cannulation. Changes in LVDP, CPP and dP/dt were analyzed by two-way analysis of variance (ANOVA), followed by the Bonferroni/Dunn test.
# The LVDP, CPP and electrocardiogram were continuously recorded on a polygraph recorder (WS-681G, Nihon Koden, Tokyo), and stored on a PCM data recorder (RD-111T, TEAC, Tokyo) for later analysis.
compound,measurement,setting,value
"CC(=O)CCC=C(C)CCC=C(C)CCC=C(C)CCC=C(C)C [GGA, 6, 10, 14, 18-tetramethyl-5,9, 13, 17-nonadecatetraen-2-one]",eNOS induction in the heart,eNOS,neither iNOS nor eNOS was induced
same,LVDP and dP/dt during reperfusion versus Control Group,"isolated perfused heart; 24 h after oral 200 mg/kg, printed 'after about 20-40 minutes of reperfusion', FIG. 5",remarkably better
same,"functional recovery (LVDP, dP/dt) versus Control Group","isolated perfused heart; 24 h after oral 200 mg/kg, printed 'after about 60 minutes of reperfusion', FIG. 5",no great difference
same,amount of creatine kinase (CK) released during reperfusion versus Control Group,isolated perfused heart; ischemic period 20 or 40 minutes,much less
same,amount of creatine kinase (CK) released during reperfusion versus Control Group,isolated perfused heart; ischemic period 60 minutes,no great difference
